Results published in patent US8268863B2 (priority 2007, dated 2012).

How the values were obtained:
human mu opioid receptor [1] = target: T1, human mu opioid receptor (Homo sapiens, UniProt P35372); experiment: Human mu GTP-Eu nucleotide exchange assay (agonist mediated activation); format: biochemical; conditions: bound GTP-Eu relative to DAMGO (IA=100), CHO-K1 membranes expressing human mu opioid receptor; read-out: intrinsic activity (IA)
T1 construct: host or cells: CHO-K1

human mu opioid receptor [2] = target: T1, human mu opioid receptor; experiment: Radioligand binding assay, human mu opioid receptor; conditions: [3H]-Diprenorphine displacement, membranes of CHO-K1 cells; read-out: pKi at the human mu opioid receptor (converted)

T1 sequence (P35372 whole entry): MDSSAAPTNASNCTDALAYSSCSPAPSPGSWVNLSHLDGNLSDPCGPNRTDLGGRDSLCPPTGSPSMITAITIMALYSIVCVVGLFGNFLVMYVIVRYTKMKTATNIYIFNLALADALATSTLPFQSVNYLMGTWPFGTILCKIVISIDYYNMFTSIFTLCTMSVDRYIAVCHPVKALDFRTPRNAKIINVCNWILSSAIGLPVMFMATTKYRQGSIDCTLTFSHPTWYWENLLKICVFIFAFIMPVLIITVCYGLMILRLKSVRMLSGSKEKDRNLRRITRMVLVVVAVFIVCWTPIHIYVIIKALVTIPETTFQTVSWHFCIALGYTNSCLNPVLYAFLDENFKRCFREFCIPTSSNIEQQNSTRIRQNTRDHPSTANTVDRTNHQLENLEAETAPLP

Row | SMILES | Emax (human mu opioid receptor [1]) [%] | Ki (human mu opioid receptor [2]) [nM]
1 | CC(C)C[C@H](NC(=O)C(Cc1ccccc1)CN1[C@@H]2CC[C@H]1C[C@@H](c1cccc(C(N)=O)c1)C2)C(N)=O (mixture of isomers) [Example 6, 3-endo-{8-[(S)-2-(S)-1-carbamoyl-3-methyl-butylcarbamoyl)-3-phenylpropyl]-8-azabicyclo[3.2.1]oct-3-yl}benzamide and 3-endo-{8-[(R)-2-((S)-1-carbamoyl-3-methylbutylcarbamoyl)-3-phenyl-propyl]-8-azabicyclo[3.2.1]oct-3-yl}benzamide] | -7 | 0.0631
2 | O=C(NC(CC1CCCCC1)CN1[C@@H]2CC[C@H]1C[C@@H](c1cccc(O)c1)C2)C1CCCCC1 (stereo partly drawn) [Example 1, cyclohexanecarboxylic acid {1-cyclohexylmethyl-2-[3-endo-(3-hydroxyphenyl)-8-azabicyclo[3.2.1]oct-8-yl]-ethyl}amide] | -9 | 0.0631
3 | O=C(CO)NC(CC1CCCCC1)CN1[C@@H]2CC[C@H]1C[C@@H](c1cccc(O)c1)C2 (stereo partly drawn) [Example 2, N-{1-cyclohexylmethyl-2-[3-endo-(3-hydroxy-phenyl)-8-azabicyclo[3.2.1]oct-8-yl]ethyl}-2-hydroxyacetamide] | 24 | 0.0631
4 | NC(=O)CCC(=O)NC(CC1CCCCC1)CN1[C@@H]2CC[C@H]1C[C@@H](c1cccc(O)c1)C2 (stereo partly drawn) [Example 3, N-{1-cyclohexylmethyl-2-[3-endo-(3-hydroxy-phenyl)-8-azabicyclo[3.2.1]oct-8-yl]ethyl}succinamide] | 3 | 0.126
5 | O=C(NCC1CCCCC1)NC(CC1CCCCC1)CN1[C@@H]2CC[C@H]1C[C@@H](c1cccc(O)c1)C2 (stereo partly drawn) [Example 4, 1-cyclohexylmethyl-3-{1-cyclohexylmethyl-2-[3-endo-(3-hydroxyphenyl)-8-azabicyclo[3.2.1]oct-8-yl]ethyl}urea] | -3 | 0.1
6 | Cc1ccc(S(=O)(=O)NC(CC2CCCCC2)CN2[C@@H]3CC[C@H]2C[C@@H](c2cccc(O)c2)C3)cc1 (stereo partly drawn) [Example 5, N-{1-cyclohexylmethyl-2-[3-endo-(3-hydroxy-phenyl)-8-azabicyclo[3.2.1]oct-8-yl]ethyl}-4-methyl-benzenesulfonamide] | 2 | 0.794
7 | O=C(NC(CCc1ccccc1)CN1[C@@H]2CC[C@H]1C[C@@H](c1cccc(O)c1)C2)c1ccccc1 (some centres unmarked) [Example 76] | ≥ 30 | 
8 | CS(=O)(=O)NC(CCN1[C@@H]2CC[C@H]1C[C@@H](c1cccc(C(N)=O)c1)C2)c1ccccc1 (some centres unmarked) [Example 104] | ≥ 30 | 
